Measurements: publication PMC7596181 (Frontiers in Immunology, 2020)

Columns and labels:
[1] = molecular target: T1, human TLR4 (Homo sapiens, UniProt O00206+Q9Y6Y9); assay: Competitive vs non-competitive antagonist type: agonist diluted in a fixed concentration of inhibitor, human TLR4 HEK-Blue SEAP; assay type: cell-based; design: host or cells: HEK-Blue (HEK293-derived) reporter cells; conditions: fixed ML3 3 μM, ML4A 3 μM or Lipid IVa 0.1 μM; agonist PHAD or 3D-6A-PHAD diluted from 10 μM
Protocol: (§1) SEAP assays were performed to evaluate the extent to which TLR4 signaling was activated in HEK-Blue reporter cells expressing mouse or human receptors (CD14, MD2 and TLR4). Reporter cells were harvested when 70–80% confluent and plated in 96-well, flat-bottom microtiter plates either 1 h, one day or two days (5 × 10^4, 4 × 10^4 or 2 × 10^4 cells/well, respectively) before addition of TLR4 agonists for 18–24 h. Culture supernatants were transferred to U-bottom microtiter plates, centrifuged and transferred again to microtiter plates to ensure reporter cells were not present. The culture supernatants were added to QUANTI-BLUE substrate following instructions provided by the manufacturer (InvivoGen cat. nos. rep-qbl or rep-qbs) and incubated at 37°C in a tissue culture incubator. At successive intervals beginning 10 min after mixing the supernatants and substrate, the plates were placed in an Emax plate reader (Molecular Devices LLC) and optical density was measured at visible light wavelength […] (OD650). The shortest incubations at which dose response curve fits produced maximal R^2 ‘goodness of fit’ values, as determined by GraphPad Prism software, were used for analysis.
Pharmacological profiles of the TLR4 reagents were generated by performing dose response curves in one of four formats. 1) Agonist potency and efficacy (EC50 and height of dose plateau, respectively) were measured by diluting TLR4 reagents successively in complete culture medium [DMEM or RPMI supplemented with fetal bovine serum (FBS) or RPMI supplemented with human serum, depending on cell-type]. […] 2) Mixed agonist–antagonist potency and efficacy were measured by mixing a TLR4 agonist with a candidate antagonist at a fixed ratio and then performing half-log step dilutions before treating HEK reporter cells. […] 4) Inhibitory potency (IC50) was measured by diluting antagonists within a fixed concentration of a reference agonist, treating HEK reporter cells and performing SEAP assays as described.

[2] = molecular target: T1, human TLR4; design: method as in PMID 1918061; conditions: cited from earlier work
[3] = molecular target: T2, mouse TLR4 (Mus musculus, UniProt Q9JHF9+Q9QUK6); design: method as in PMID 1918061; conditions: cited from earlier work
T2 sequence (Q9QUK6 26-835): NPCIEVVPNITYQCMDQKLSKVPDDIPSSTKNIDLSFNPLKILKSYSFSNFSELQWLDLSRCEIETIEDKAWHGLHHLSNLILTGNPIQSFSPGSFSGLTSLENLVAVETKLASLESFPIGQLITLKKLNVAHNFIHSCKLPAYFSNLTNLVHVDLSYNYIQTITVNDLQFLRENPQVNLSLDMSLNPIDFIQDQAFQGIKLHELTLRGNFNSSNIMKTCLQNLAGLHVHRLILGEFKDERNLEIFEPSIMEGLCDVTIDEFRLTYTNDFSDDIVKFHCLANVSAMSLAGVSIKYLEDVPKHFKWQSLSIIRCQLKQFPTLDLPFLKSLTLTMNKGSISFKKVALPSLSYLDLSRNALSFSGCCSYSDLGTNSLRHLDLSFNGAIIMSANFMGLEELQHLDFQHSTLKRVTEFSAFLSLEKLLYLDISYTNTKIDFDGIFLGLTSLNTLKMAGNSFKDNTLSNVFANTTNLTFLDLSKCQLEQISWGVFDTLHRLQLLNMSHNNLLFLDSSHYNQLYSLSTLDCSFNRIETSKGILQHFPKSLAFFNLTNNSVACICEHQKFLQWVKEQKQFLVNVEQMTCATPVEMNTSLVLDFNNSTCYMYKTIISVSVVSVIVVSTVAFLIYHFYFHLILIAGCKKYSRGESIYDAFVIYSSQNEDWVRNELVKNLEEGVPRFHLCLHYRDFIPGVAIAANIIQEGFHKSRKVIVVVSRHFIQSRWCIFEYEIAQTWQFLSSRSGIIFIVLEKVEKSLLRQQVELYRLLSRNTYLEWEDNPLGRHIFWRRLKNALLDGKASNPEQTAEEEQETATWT
T2 sequence (Q9JHF9 19-160): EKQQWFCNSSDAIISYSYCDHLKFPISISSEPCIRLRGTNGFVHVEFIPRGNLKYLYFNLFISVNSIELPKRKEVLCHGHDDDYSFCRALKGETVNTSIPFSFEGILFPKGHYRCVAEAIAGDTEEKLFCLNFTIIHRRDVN

[4] = molecular target: T1, human TLR4; assay: Inhibition curves (IC50 format): antagonist diluted in a fixed concentration of reference agonist, human TLR4 HEK-Blue SEAP; assay type: cell-based; design: host or cells: HEK-Blue (HEK293-derived) reporter cells; conditions: for inhibition of PHAD stimulation: fixed PHAD 1 μM, 22 h
Protocol: as §1
(§2) Pharmacological profiles of the TLR4 reagents were generated by performing dose response curves in one of four formats. 1) Agonist potency and efficacy (EC50 and height of dose plateau, respectively) were measured by diluting TLR4 reagents successively in complete culture medium [DMEM or RPMI supplemented with fetal bovine serum (FBS) or RPMI supplemented with human serum, depending on cell-type]. Half-log step dilutions were performed in 96-well, U-bottom microtiter plates using a multichannel pipette to transfer and mix the suspensions, with fresh tips used for each dilution step. One-tenth (20 μl) volumes from wells of the dilution plate were then transferred to wells containing cells that had been plated in nine-tenth volumes (180 μl) of culture medium. 2) Mixed agonist–antagonist potency and efficacy were measured by mixing a TLR4 agonist with a candidate antagonist at a fixed ratio and then performing half-log step dilutions before treating HEK reporter cells. Analysis of values obtained from SEAP assays of culture supernatants was then performed as described for preparations containing agonist alone, above. 3) Competitive vs allosteric or non-competitive antagonist type was evaluated by diluting a reference agonist within a fixed concentration of a candidate inhibitor in half-log steps, treating HEK reporter cells, performing SEAP assays and then analyzing the data as described for agonist assays, above. Competitive antagonists are characterized by values that reach the same dose plateau as for a reference, full agonist, while shifting potency to higher EC50 values. […] 4) Inhibitory potency (IC50) was measured by diluting antagonists within a fixed concentration of a reference agonist, treating HEK reporter cells and performing SEAP assays as described.

[5] = molecular target: T1, human TLR4; assay: Mixed agonist-antagonist dose curves at fixed ratio, human TLR4 HEK-Blue SEAP; assay type: cell-based; design: host or cells: HEK-Blue (HEK293-derived) reporter cells
Protocol: as §1, §2

[6] = molecular target: T1, human TLR4; assay: SEAP assay, agonist dose response in human TLR4 HEK-Blue reporter cells; assay type: cell-based; design: host or cells: HEK-Blue (HEK293-derived) reporter cells; conditions: for agonist profile / EC50: human TLR4 HEK-Blue reporter cells; for EC50: read-out: EC50 for stimulation
Protocol: (§3) Human and mouse HEK-Blue reporter cells express human or mouse CD14, MD2, and TLR4 and secreted embryonic alkaline phosphatase (SEAP) under control of a promoter with binding sites for NFκB and AP-1 transcription factors (InvivoGen cat. nos. hkb-htlr4 and hkb-mtlr4). Cells were cultured as directed by the supplier, with the exception that Glutamax (ThermoFisher cat. no. 10569010) was used in place of L-glutamine, and TrypLE Express (ThermoFisher cat. no. 12605010) was used to release adherent cells for each passage. BALB/c mouse RAW264.7 and human THP-1 cells (ATCC® cat. nos. TIB-71 and TIB-202) were cultured in DMEM (4.5 g/L D-Glucose with 2 mM L-glutamine, 1 mM sodium pyruvate, 100 U/ml penicillin and 100 μg/ml streptomycin) supplemented with 10% heat-inactivated FBS. THP-1 cells were exposed to phorbol-12-myristate-13-acetate (PMA, InvivoGen cat no. tlrl-pma), 5 ng/ml, for 48 h prior to treatment with TLR4 agonists. Bone marrow-derived dendritic cells (BMDCs) were generated using C57BL/6 mouse femurs following the exact method published by Lutz et al. ([29]) except that 5 rather than 20 ng/ml recombinant GM-CSF was used to differentiate the DC. Human peripheral blood […] (PBMCs) were prepared from venous blood of healthy volunteers that had been collected using sodium citrate as anti-coagulant, 20 ml of which was mixed with 15 ml calcium- and magnesium-free Hank’s Balanced Saline Solution (HBSS) and then laid over 6 ml Histopaque®-1077 (1.077 g/ml, Sigma-Aldrich cat no. 10771) for density gradient centrifugation. The buffy coat layer was collected by pipette, washed once in HBSS, once in serum-free RPMI-1640, and then the PBMCs were resuspended in RPMI-1640 supplemented with 100 U/ml penicillin, 100 µg/ml streptomycin, 1 mM Na-Pyruvate, 2 mM L-glutamine, 50 μM βME and 10% heat-inactivated, male AB human serum for culture.
as §1
(§4) Pharmacological profiles of the TLR4 reagents were generated by performing dose response curves in one of four formats. 1) Agonist potency and efficacy (EC50 and height of dose plateau, respectively) were measured by diluting TLR4 reagents successively in complete culture medium [DMEM or RPMI supplemented with fetal bovine serum (FBS) or RPMI supplemented with human serum, depending on cell-type]. Half-log step dilutions were performed in 96-well, U-bottom microtiter plates using a multichannel pipette to transfer and mix the suspensions, with fresh tips used for each dilution step. One-tenth (20 μl) volumes from wells of the dilution plate were then transferred to wells containing cells that had been plated in nine-tenth volumes (180 μl) of culture medium. […]

[7] = molecular target: T2, mouse TLR4; assay: SEAP assay, agonist dose response in mouse TLR4 HEK-Blue reporter cells; assay type: cell-based; design: host or cells: HEK-Blue (HEK293-derived) reporter cells; conditions: for agonist profile: mouse TLR4 HEK-Blue reporter cells
Protocol: as §3, §1, §4

T1 sequence (O00206 24-839): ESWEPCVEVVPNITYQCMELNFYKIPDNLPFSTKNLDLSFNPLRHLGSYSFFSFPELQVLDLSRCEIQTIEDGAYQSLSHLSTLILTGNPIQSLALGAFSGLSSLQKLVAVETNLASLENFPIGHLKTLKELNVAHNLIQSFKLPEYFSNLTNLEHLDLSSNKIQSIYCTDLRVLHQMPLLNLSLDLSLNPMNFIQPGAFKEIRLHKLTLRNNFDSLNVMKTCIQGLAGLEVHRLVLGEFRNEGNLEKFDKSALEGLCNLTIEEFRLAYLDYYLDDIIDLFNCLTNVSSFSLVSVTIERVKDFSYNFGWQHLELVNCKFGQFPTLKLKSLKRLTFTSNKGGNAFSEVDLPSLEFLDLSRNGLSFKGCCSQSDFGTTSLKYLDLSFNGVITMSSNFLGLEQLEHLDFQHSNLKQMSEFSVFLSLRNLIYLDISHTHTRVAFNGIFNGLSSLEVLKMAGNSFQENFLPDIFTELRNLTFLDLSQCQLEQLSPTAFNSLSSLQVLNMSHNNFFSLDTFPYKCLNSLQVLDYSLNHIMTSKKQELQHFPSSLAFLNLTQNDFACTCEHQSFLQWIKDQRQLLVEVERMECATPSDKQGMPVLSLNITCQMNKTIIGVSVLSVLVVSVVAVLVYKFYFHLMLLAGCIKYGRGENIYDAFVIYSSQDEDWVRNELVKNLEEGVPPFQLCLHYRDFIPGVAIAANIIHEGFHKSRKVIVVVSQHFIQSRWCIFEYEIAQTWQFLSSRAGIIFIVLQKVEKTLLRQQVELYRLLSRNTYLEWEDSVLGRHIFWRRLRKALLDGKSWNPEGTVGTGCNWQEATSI
T1 sequence (Q9Y6Y9 17-160 limits assumed): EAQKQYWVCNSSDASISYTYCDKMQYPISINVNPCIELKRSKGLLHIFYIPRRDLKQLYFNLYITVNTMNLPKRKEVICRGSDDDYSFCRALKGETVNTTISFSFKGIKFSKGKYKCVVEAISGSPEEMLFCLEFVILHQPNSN

Compound | agonist profile [6] | EC50 [6] | agonist profile [7] | inhibition of PHAD stimulation [4] | also measured
CCCCCCCCCCC[C@@H](O)CC(=O)N[C@H]1[C@H](OC[C@H]2O[C@H](OP(=O)(O)O)[C@H](NC(=O)C[C@H](O)CCCCCCCCCCC)[C@@H](OC(=O)C[C@H](O)CCCCCCCCCCC)[C@@H]2O)O[C@H](CO)[C@@H](OP(=O)(O)O)[C@@H]1OC(=O)C[C@H](O)CCCCCCCCCCC [Lipid IVa, reference compound] |  |  |  |  | antagonist type [1]: competitive antagonist curve; activity on human TLR4 [2]: competitive antagonist of human TLR4; activity on mouse TLR4 [3]: agonist of mouse TLR4; inhibition of 3D-6A-PHAD stimulation ([4]; fixed 3D-6A-PHAD 300 nM): functioned as inhibitors; IC50 ([4]; fixed PHAD 30 nM, 95% CI given): 0.19 nM; effect on agonist dose curve in fixed-ratio mixture ([5]; mixed with PHAD at 1:60 or 1:20 antagonist:agonist): clearly flatted; effect on agonist dose curve in fixed-ratio mixture ([5]; mixed with PHAD at 1:180 antagonist:agonist): trending to a flattened curve
CCCCCCCCCCCCCC(=O)O[C@H](CCCCCCCCCCC)CC(=O)N[C@H]1[C@H](OC[C@H]2OC(O)[C@H](NC(=O)C[C@H](O)CCCCCCCCCCC)[C@@H](OC(=O)C[C@H](O)CCCCCCCCCCC)[C@@H]2O)O[C@H](CO)[C@@H](OP(=O)(O)O)[C@@H]1OC(=O)C[C@@H](CCCCCCCCCCC)OC(=O)CCCCCCCCCCCCC (stereo partly shown) [PHAD, phosphorylated hexa-acyl disaccharide, reference compound] | weak yet full agonist of both mouse and human TLR4 | 30 nM | weak yet full agonist of both mouse and human TLR4 |  | 
CCCCCCCCCCCCCCCC(=O)OC(CCCCCCCCCCC)CC(=O)NC1C(O)OC(COC2OC(CO)C(OP(=O)(O)O)C(OC(=O)CC(CCCCCCCCCCC)OC(=O)CCCCCCCCCCCCC)C2NC(=O)CC(CCCCCCCCCCC)OC(=O)CCCCCCCCCCC)C(O)C1O (stereo not shown) [ML6] | weaker agonists of human TLR4 than of mouse TLR4 |  |  | only ML3 and ML4A showed inhibitory potential | 
CCCCCCCCCCCCCC(=O)OC(CCCCCCCCCCC)CC(=O)NC1C(O)OC(COC2OC(CO)C(OP(=O)(O)O)C(OC(=O)CC(CCCCCCCCCCC)OC(=O)CCCCCCCCCCCCC)C2NC(=O)CC(CCCCCCCCCCC)OC(=O)CCCCCCCCCCCCC)C(O)C1O (stereo not shown) [3D-6A-PHAD, reference compound] |  | 300 nM |  |  | 
CCCCCCCCCCCCCC(=O)OC(CCCCCCCCCCC)CC(=O)OC1C(NC(=O)CC(CCCCCCCCCCC)OC(=O)CCCCCCCCCCC)C(OCC2OC(O)C(NC(=O)CC(O)CCCCCCCCCCC)C(O)C2O)OC(CO)C1OP(=O)(O)O (stereo not shown) [ML5A] | weaker agonists of human TLR4 than of mouse TLR4 |  |  | only ML3 and ML4A showed inhibitory potential | 
CCCCCCCCCCCCCC(=O)O[C@H](CCCCCCCCCCC)CC(=O)O[C@@H]1[C@@H](NC(=O)C[C@@H](CCCCCCCCCCC)OC(=O)CCCCCCCCCCC)[C@H](OC[C@H]2O[C@H](OP(=O)(O)O)[C@H](NC(=O)C[C@H](O)CCCCCCCCCCC)[C@@H](OC(=O)C[C@H](O)CCCCCCCCCCC)[C@@H]2O)O[C@H](CO)[C@H]1OP(=O)(O)O [Lipid A, reference compound] | most potent of the agonists tested |  | most potent of the agonists tested |  | ED50 (95% CI) ([6]; human TLR4 reporter cells, stimulatory curve fit, Figure 3C): 1.0 (0.8-1.1) ng/mL; ED50 (95% CI) ([7]; mouse Tlr4 reporter cells, stimulatory curve fit, Figure 3C): 0.7 (0.5-0.9) ng/mL
